Assay [1] deals with FGFR3-BAIAP2L1 Ba/F3 cells (Homo sapiens, UniProt P22607). Briefly: Ba/F3 cell viability assay (CellTiter-Glo 2.0), FGFR3-BAIAP2L1 Ba/F3. It is filed as cell-based. As to conditions: for Ba/F3 FGFR1/FGFR3 Selectivity: FGFR3 > FGFR1 selectivity ratio in Ba/F3 FGFR fusion cell based assays; for IC50: read-out: Ba/F3 Cells FGFR3 (IC50 nM), FGFR3-BAIAP2L1 Ba/F3 cells, 48 hours, Cell Titer Glo 2.0. In a few lines:
(§1)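 IL3-independent Ba/F3 lines driven by FGFR1-BCR or FGFR3-BAIAP2L1 fusions, in RPMI1640/10% FBS. 9-dose 10-fold series from 30 μM, triplicate, 48 h at 37 °C; viability by CellTiter-Glo 2.0 ATP luminescence relative to DMSO control, IC50 from 4-parameter sigmoidal fit.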

Assay [2] concerns the target FGFR1-BCR Ba/F3 cells (Homo sapiens, UniProt P11362). Briefly: Ba/F3 cell viability assay (CellTiter-Glo 2.0), FGFR1-BCR Ba/F3. It is filed as cell-based. The conditions noted are these: read-out: Ba/F3 Cells FGFR1 (IC50 nM), 48 hours, Cell Titer Glo 2.0. In a few lines:
as §1
On the technique in general: In ATP-based viability assays light output follows the ATP content of the culture.

Assay [3] concerns RT112/84 cells (FGFR3-fusion). Briefly: RT112/84 cancer cell line cell viability assay (CellTiter-Glo 2.0). The conditions noted are these: Homo sapiens, 72 hours, Cell Titer Glo 2.0. In kind it is cell-based. The text has this: (§2) Experimental Purpose: To detect the change of intracellular ATP by Cell Titer-Glo® and to evaluate the inhibitory effect of the compounds on cancer cell lines by determining the in vitro IC50 value of the compounds.
(§3) Cell Titer-Glo® 2.0 Luminescent cell viability assay reagent was purchased from Promega (Madison, WI). RT112/84 and KG-1 cell lines were purchased from American Type Culture Collection (Manassas, VA). UM-UC-14 cell line was purchased from Sigma (St. Louis, MO). RT112/84, UM-UC-14, and KG-1 cells were cultured in RPMI1640 media supplemented with 10% fetal bovine serum. Cultures were maintained at 37° C. in a humidified atmosphere of 5% C02 and 95% air.
(§4) Cell Viability Assay Procedure: Cells were plated in 96-well clear bottom/white plates (Corning #3903) at 10,000 cells/well in 100 μl of media, incubated overnight. The next day, test compound DMSO stock solutions were made at 10 mM and 2 μM final concentration. Compounds were then added to cells in a 9-dose, 10-fold dilution series starting at 30 μM with an HP 300e Digital Dispenser (each dose was applied in triplicate). DMSO was backfilled to each well up to 301 nL total volume of test compound+DMSO, and a total of 301 nL DMSO was added to a control/no test compound well in triplicate. The cells in cell culture plates were incubated with the compounds at 37° C. and 5% C02 for 72 hours. Then 50 μl of Cell Titer Glo 2.0 reagent was added to each well of the cell culture plates. The contents were covered from light and mixed on an orbital shaker at room temperature for 10 min. Luminescence was recorded by a Synergy H1 Microplate Reader (Biotek, Winooski, VT). Cells were assessed as a percentage of DMSO only treated control cells. Curves were plotted and IC50 values were calculated using the GraphPad Prism 8 program based on a sigmoidal dose-response equation (4 parameter).

Assay [4] concerns KG-1 cells (FGFR1-fusion). Briefly: KG-1 cancer cell line cell viability assay (CellTiter-Glo 2.0). As to conditions: Homo sapiens, 72 hours, Cell Titer Glo 2.0. It is filed as cell-based.
Source text: as §2, §3, §4

For assay [5], the target named is FGFR1 (Homo sapiens (Human), UniProt P11362). Briefly: Kinase assay, binding constants (Kd), kinase-tagged T7 phage, qPCR. In a few lines:
(§5)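 Competition binding: T7 phage-tagged kinase + biotin-ligand beads + compound (11 pts, 3-fold, 0.9% DMSO). Elution 30 min RT with free ligand; qPCR quantitation. Kd via Hill fit, slope −1.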
A general note: Quantitative PCR measures a nucleic acid by following its amplification.

Assay [6] addresses FGFR2 (Homo sapiens (Human), UniProt P21802). The assay is described as above. In a few lines:
as §5

In assay [7] the target is FGFR3 (Homo sapiens (Human), UniProt P22607). The description is as above. In a few lines: as §5
Sequence of FGFR3 (P22607 23-806): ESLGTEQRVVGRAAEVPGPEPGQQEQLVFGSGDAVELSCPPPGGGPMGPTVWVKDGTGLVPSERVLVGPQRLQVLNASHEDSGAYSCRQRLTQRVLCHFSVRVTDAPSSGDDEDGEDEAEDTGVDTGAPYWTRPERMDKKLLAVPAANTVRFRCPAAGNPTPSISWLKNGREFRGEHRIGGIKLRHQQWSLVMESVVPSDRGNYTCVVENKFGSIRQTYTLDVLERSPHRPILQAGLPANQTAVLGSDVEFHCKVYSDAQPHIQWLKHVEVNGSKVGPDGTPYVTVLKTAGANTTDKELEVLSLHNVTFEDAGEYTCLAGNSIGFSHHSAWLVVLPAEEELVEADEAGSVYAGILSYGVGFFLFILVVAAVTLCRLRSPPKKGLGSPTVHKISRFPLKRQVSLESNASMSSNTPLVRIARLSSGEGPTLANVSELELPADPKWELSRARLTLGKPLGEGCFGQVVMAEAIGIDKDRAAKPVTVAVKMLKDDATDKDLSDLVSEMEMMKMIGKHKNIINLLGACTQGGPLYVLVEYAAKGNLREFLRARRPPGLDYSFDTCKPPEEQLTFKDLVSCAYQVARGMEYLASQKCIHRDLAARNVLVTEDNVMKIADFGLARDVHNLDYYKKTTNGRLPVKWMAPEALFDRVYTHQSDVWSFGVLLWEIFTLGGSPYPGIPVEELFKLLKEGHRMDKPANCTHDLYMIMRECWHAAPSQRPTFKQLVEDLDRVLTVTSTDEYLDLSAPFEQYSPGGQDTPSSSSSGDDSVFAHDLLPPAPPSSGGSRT
The target in assay [8] is FGFR3 (V555M) (Homo sapiens (Human), UniProt P22607, V555M). The assay is described as above. As to conditions: V555M mutant. In a few lines: as §5
Sequence of FGFR3 (V555M) (P22607 23-806 V555M): as the sequence (P22607 23-806) above, with V533M counted along it
Assay [9] deals with FGFR4 (Homo sapiens (Human), UniProt P22455). The description is as above. In a few lines: as §5
Sequence of FGFR4 (P22455 22-802): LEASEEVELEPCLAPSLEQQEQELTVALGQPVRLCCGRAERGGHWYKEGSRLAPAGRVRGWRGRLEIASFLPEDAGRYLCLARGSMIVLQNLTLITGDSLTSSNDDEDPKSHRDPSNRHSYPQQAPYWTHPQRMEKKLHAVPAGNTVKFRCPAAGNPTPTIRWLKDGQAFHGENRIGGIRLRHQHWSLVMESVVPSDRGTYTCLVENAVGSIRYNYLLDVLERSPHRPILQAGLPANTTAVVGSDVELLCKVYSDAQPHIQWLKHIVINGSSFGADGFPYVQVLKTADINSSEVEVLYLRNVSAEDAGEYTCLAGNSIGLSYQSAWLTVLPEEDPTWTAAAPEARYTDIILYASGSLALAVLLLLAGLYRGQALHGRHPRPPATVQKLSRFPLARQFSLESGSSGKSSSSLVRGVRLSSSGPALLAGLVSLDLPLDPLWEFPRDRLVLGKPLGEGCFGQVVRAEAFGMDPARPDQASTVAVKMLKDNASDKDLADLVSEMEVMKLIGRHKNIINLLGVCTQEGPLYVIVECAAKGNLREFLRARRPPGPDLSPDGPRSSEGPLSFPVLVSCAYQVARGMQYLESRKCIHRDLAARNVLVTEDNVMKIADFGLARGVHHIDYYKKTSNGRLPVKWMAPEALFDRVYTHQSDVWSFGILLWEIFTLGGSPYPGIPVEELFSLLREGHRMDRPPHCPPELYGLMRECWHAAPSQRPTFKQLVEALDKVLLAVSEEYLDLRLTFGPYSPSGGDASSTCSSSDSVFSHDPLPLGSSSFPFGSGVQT

Sequence of FGFR2 (P21802 22-821): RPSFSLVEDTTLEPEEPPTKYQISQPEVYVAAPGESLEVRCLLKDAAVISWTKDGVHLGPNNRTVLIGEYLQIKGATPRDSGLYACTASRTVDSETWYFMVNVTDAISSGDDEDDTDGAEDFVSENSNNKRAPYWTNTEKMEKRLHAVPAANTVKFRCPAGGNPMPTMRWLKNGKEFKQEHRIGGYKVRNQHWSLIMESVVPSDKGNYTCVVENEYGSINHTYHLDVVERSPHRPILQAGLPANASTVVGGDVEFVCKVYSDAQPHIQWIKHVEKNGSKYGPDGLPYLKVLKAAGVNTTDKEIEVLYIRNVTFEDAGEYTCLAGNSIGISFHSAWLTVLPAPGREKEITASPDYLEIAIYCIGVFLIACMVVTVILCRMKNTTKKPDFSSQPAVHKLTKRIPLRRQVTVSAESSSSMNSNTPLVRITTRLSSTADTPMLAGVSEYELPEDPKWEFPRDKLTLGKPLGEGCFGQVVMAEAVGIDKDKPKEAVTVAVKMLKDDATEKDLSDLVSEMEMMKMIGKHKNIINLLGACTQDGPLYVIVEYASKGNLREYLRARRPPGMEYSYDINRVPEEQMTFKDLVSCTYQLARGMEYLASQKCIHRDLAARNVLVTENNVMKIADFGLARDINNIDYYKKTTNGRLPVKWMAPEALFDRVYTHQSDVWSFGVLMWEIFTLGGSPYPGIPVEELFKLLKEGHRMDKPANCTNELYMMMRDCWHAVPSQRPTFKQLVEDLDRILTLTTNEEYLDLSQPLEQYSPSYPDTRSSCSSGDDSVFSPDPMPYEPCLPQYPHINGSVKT
Sequence of FGFR3-BAIAP2L1 Ba/F3 cells (P22607 23-806 limits assumed, change not shown): as the sequence (P22607 23-806) above
Sequence of FGFR1-BCR Ba/F3 cells (P11362 22-822 limits assumed, change not shown): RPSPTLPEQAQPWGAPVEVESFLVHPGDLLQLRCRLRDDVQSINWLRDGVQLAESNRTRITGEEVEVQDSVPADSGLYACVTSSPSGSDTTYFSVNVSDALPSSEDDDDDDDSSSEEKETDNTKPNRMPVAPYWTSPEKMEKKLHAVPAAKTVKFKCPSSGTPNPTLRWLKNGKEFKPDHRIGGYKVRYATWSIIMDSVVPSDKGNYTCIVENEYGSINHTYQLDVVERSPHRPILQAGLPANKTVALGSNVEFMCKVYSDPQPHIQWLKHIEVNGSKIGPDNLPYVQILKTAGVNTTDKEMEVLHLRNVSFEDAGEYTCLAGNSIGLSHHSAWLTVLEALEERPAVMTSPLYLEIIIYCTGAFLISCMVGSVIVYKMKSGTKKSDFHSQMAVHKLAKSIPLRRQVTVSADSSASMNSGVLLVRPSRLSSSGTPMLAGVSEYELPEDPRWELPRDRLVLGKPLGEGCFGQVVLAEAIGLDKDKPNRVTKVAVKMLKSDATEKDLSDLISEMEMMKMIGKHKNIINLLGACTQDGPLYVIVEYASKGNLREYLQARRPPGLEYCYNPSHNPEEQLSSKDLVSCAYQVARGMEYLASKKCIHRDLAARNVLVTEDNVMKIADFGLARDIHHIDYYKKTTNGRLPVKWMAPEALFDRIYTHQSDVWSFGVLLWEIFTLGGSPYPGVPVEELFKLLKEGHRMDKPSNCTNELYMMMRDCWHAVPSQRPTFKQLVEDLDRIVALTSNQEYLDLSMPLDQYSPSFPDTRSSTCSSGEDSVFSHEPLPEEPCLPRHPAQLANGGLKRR
Sequence of FGFR1 (P11362 22-822): as the sequence (P11362 22-822 limits assumed, change not shown) above

Regarding `C[C@@H](Oc1ccc2[nH]nc(-c3ccc(N4CCC5(CCC(=O)N5)CC4)nc3)c2c1)c1c(Cl)cncc1Cl` [Example 29, 8-[5-[5-[(1R)-1-(3,5-dichloro-4-pyridyl)ethoxy]-1H-indazol-3-yl]-2-pyridyl]-1,8-diazaspiro[4.5]decan-2-one], the “Ba/F3 FGFR1/FGFR3 Selectivity” value in [1] came to 19. The IC50 fell in the range of 1 to 20 nM in assay [1], 100 to 300 nM in assay [2], 1 to 20 nM in assay [3] and 20 to 100 nM in assay [4]. Also, the Kd in assay [5], in assay [6], in assay [7], in [8] and in assay [9] was 1 to 20 nM each time.
Take `C[C@@H](Oc1ccc2[nH]nc(-c3ccc(N4CCNC(=O)CC4)nc3)c2c1)c1c(Cl)cncc1Cl` [Example 30, 1-[5-[5-[(1R)-1-(3,5-dichloro-4-pyridyl)ethoxy]-1H-indazol-3-yl]-2-pyridyl]-1,4-diazepan-5-one]: in assay [1], the “Ba/F3 FGFR1/FGFR3 Selectivity” value was 18. For the same compound, the IC50 in assay [1] lay in the range of 1 to 20 nM; in assay [2] it was 100 to 300 nM; in assay [3], 1 to 20 nM; in assay [4], 20 to 100 nM. The Kd in assay [5], in assay [6], in [7], in [8] and in assay [9] was 1 to 20 nM in each case.
With `CC(C)N1CC2(CN(c3ccc(-c4n[nH]c5ccc(O[C@H](C)c6c(Cl)cncc6Cl)cc45)cn3)C2)C1` [Example 31, 5-[(1R)-1-(3,5-dichloro-4-pyridyl)ethoxy]-3-[6-(2-isopropyl-2,6-diazaspiro[3.3]heptan-6-yl)-3-pyridyl]-1H-indazole], the values for the IC50 in assay [3] and in [4] were 1 to 20 nM and 20 to 100 nM, respectively. The dissociation constant (Kd) in assay [5], in assay [6], in assay [7], in assay [8] and in [9] was 1 to 20 nM throughout.
In the case of `C[C@@H](Oc1ccc2[nH]nc(-c3cnc(N4CCC5(CCC(=O)N5)CC4)c(F)c3)c2c1)c1c(Cl)cncc1Cl` [Example 42, 8-[5-[5-[(1R)-1-(3,5-dichloro-4-pyridyl)ethoxy]-1H-indazol-3-yl]-3-fluoro-2-pyridyl]-1,8-diazaspiro[4.5]decan-2-one], the “Ba/F3 FGFR1/FGFR3 Selectivity” value in [1] came out at 17. The IC50 was 1 to 20 nM in [1], 100 to 300 nM in [2], 1 to 20 nM in assay [3] and 20 to 100 nM in [4]. Further, the equilibrium dissociation constant (Kd) (usually the free concentration of one partner at which half of the binding sites on the other are occupied at equilibrium, for simple one-to-one binding) in [5] lay within 1 to 20 nM; in assay [6], 20 to 100 nM; in assay [7] it was 1 to 20 nM; in assay [8], 1 to 20 nM; in [9], 1 to 20 nM.
As to `C[C@@H](Oc1ccc2[nH]nc(-c3cnc(N4CCC5(CC4)CC(=O)NC5=O)nc3)c2c1)c1c(Cl)cncc1Cl` [Example 50, 8-[5-[5-[(1R)-1-(3,5-dichloro-4-pyridyl)ethoxy]-1H-indazol-3-yl]pyrimidin-2-yl]-2,8-diazaspiro-[4,5]decane-1,3-dione], the “Ba/F3 FGFR1/FGFR3 Selectivity” value in assay [1] is on record as 16. In addition, the IC50 in assay [1] was 1 to 20 nM; in assay [2], 100 to 300 nM; in assay [3], 20 to 100 nM; in assay [4], 100 to 300 nM. In addition, the Kd lay in the range of 20 to 100 nM in [5]; 20 to 100 nM in [6]; 1 to 20 nM in assay [7]; 1 to 20 nM in assay [8]; 1 to 20 nM in [9].
Turning to `C[C@@H](Oc1ccc2[nH]nc(-c3cnn(C4CCN(C)CC4)c3)c2c1)c1c(Cl)cncc1Cl` [Example 65, 5-[(1R)-1-(3,5-dichloro-4-pyridyl)ethoxy]-3-[1-(1-methyl-4-piperidyl)pyrazol-4-yl]-1H-indazole], the IC50 fell in the range of 1 to 20 nM in [1], 20 to 100 nM in assay [2], 1 to 20 nM in [3] and 20 to 100 nM in assay [4]. Besides, the Kd in assay [5], in assay [6], in assay [7], in assay [8] and in assay [9] was 1 to 20 nM in each case.
As for `C[C@@H](Oc1ccc2[nH]nc(-c3cnc(N4CCC5(CC4)CCS(=O)(=O)C5)c(F)c3)c2c1)c1c(Cl)cncc1Cl` [Example 77, 8-[5-[5-[(1R)-1-(3,5-dichloro-4-pyridyl)ethoxy]-1H-indazol-3-yl]-3-fluoro-2-pyridyl]-2λ^6-thia-8-azaspiro[4.5]decane 2,2-dioxide], the “Ba/F3 FGFR1/FGFR3 Selectivity” value in [1] is listed as 14. Also, the IC50 was 1 to 20 nM in [1], 100 to 300 nM in assay [2], 1 to 20 nM in [3] and 100 to 300 nM in [4]. Also, the dissociation constant Kd is 1 to 20 nM in [5]; 20 to 100 nM in [6]; 1 to 20 nM in [7]; 1 to 20 nM in [8]; 1 to 20 nM in assay [9].
With `C[C@@H](Oc1ccc2[nH]nc(-c3ccc(N4CC5(CCN(S(C)(=O)=O)CC5)C4)nc3)c2c1)c1c(Cl)cncc1Cl` [Example 111, 5-[(1R)-1-(3,5-dichloro-4-pyridyl)ethoxy]-3-[6-(7-methylsulfonyl-2,7-diazaspiro[3.5]nonan-2-yl)-3-pyridyl]-1H-indazole], in [1], the “Ba/F3 FGFR1/FGFR3 Selectivity” value is given as 15. The IC50 lay within 1 to 20 nM in [1], 100 to 300 nM in [2] and 1 to 20 nM in assay [3]. Also, the dissociation constant Kd lay within 20 to 100 nM in assay [5]; 20 to 100 nM in assay [6]; 1 to 20 nM in [7]; 1 to 20 nM in assay [8]; 1 to 20 nM in [9].
As to `C[C@@H](Oc1ccc2[nH]nc(-c3ccc(N4CC5(C4)CS(=O)(=O)C5)nc3)c2c1)c1c(Cl)cncc1Cl` [Example 112, 6-[5-[5-[(1R)-1-(3,5-dichloro-4-pyridyl)ethoxy]-1H-indazol-3-yl]-2-pyridyl]-2λ^6-thia-6-azaspiro[3.3]heptane 2,2-dioxide], in assay [1], the “Ba/F3 FGFR1/FGFR3 Selectivity” value was 12. The IC50 was in the range of 1 to 20 nM in assay [1], 100 to 300 nM in assay [2] and 1 to 20 nM in assay [3]. Further, the Kd in assay [5] is 1 to 20 nM; in assay [6] it was 20 to 100 nM; in assay [7], 1 to 20 nM; in [8], 1 to 20 nM; in assay [9] it was 1 to 20 nM.
For the compound `C[C@@H](Oc1ccc2[nH]nc(-c3ccc(N4CC5(CCS(=O)(=O)CC5)C4)nc3)c2c1)c1c(Cl)cncc1Cl` [Example 113, 2-[5-[5-[(1R)-1-(3,5-dichloro-4-pyridyl)ethoxy]-1H-indazol-3-yl]-2-pyridyl]-7λ^6-thia-2-azaspiro[3.5]nonane 7,7-dioxide], the “Ba/F3 FGFR1/FGFR3 Selectivity” value in assay [1] is reported as 11. Moreover, the IC50 in assay [1] was 1 to 20 nM; in assay [2], 20 to 100 nM; in assay [3], 1 to 20 nM. The dissociation constant Kd in assay [5], in [6], in assay [7], in assay [8] and in [9] was 1 to 20 nM throughout.
For `C[C@@H](Oc1ccc2[nH]nc(-c3ccc(N4CC5(C4)CN(S(C)(=O)=O)C5)nc3)c2c1)c1c(Cl)cccc1Cl` [Example 170, 5-[(1R)-1-(2,6-dichlorophenyl)ethoxy]-3-[6-(2-methylsulfonyl-2,6-diazaspiro[3.3]heptan-6-yl)-3-pyridyl]-1H-indazole], the “Ba/F3 FGFR1/FGFR3 Selectivity” value in assay [1] was 14. In addition, the IC50 in assay [1] was 20 to 100 nM; in assay [2], > 300 nM. The Kd in [5] fell in the range of 100 to 300 nM; in assay [6], 20 to 100 nM; in [7], 1 to 20 nM; in assay [8] it was 1 to 20 nM; in assay [9], 100 to 300 nM.
